In patent US10662171B2, “Antidiabetic bicyclic compounds” (Merck Sharp & Dohme Corp., priority 2014, dated 2020) one finds EC50 data, which are given here for 33 compounds.

A word on the EC50: it is the concentration needed to bring the measured effect to its halfway point. Low values mean a more potent agent, high ones a less potent agent.

Test [1] concerns the target T1, human GPR40 (Homo sapiens, UniProt O14842).
T1 construct: expressed in transfected cells; host or cells: HEK cells stably expressing the aequorin reporter
Kind of test: Inositol Phosphate Turnover (IP1) Assay 1. Format: cell-based. The conditions noted are these: HEK cells stably expressing human GPR40; compound transferred via pocket tip; 60 minutes at 37 degrees. The method, then: (§1) Human and mouse GPR40 stable cell-lines were generated in CHO cells stably expressing NFAT BLA (Beta-lactamase). A human GPR40 stable cell-line was generated in HEK cells stably expressing the aequorin expressing reporter. The expression plasmids were transfected using lipofectamine (Life Technologies) following manufacturer's instructions. Stable cell-lines were generated following drug selection.
(§2) The assay is performed in 384-well format. HEK cells stably expressing human GPR40 are plated at 15,000 cells per well in growth medium (DMEM/10% fetal calf serum). Cell plates are then incubated 16 hours at 37 degrees in a 5% CO2 incubator.
Measurement of Inositol Phosphate Turnover (IP1) is performed using the CisBio IP-One kit (Part number 62IPAPEB). After the 16 hour incubation, the cells are washed with HEPES buffer and 10 ul of stimulation buffer (prepared as described in the kit) is added to each well. In a separate plate, compounds are diluted in DMSO (400-fold over the final concentration in the assay well) and 25 nl is transferred via pocket tip to the appropriate well in the assay cell plate. The plates are then incubated for 60 minutes at 37 degrees. 10 ul of detection buffer (also prepared as described in the IP-One kit) is added to each well and the plates are incubated for 60 minutes in the dark. The plates are then read in a Perkin Elmer EnVision or equivalent reader able to measure FRET. Fluorescent ratio of emission at 665 and 620 nm is then converted to IP1 concentration by back calculating from an IP1 standard curve prepared at the time of the assay.

Test [2] concerns the target T1, human GPR40. Briefly: Inositol Phosphate Turnover (IP1) Assay 2. Format: cell-based. The conditions noted are these: HEK cells stably expressing human GPR40; compound acoustically transferred; 60 minutes at 37 degrees. The method, then:
as §1, §2
Measurement of Inositol Phosphate Turnover (IP1) is performed using the CisBio IP-One kit (Part number 62IPAPEB). After the 16 hour incubation, the cells are washed with HEPES buffer and 10 ul of stimulation buffer (prepared as described in the kit) is added to each well. In a separate plate, compounds are diluted in DMSO (400-fold over the final concentration in the assay well) and 25 nl is acoustically transferred to the appropriate well in the assay cell plate. The plates were then incubated for 60 minutes at 37 degrees. 10 ul of detection buffer (also prepared as described in the IP-One kit) is added to each well and the plates are incubated for 60 minutes in the dark. The plates are then read in a Perkin Elmer EnVision or equivalent reader able to measure FRET. Fluorescent ratio of emission at 665 and 620 nm is then converted to IP1 concentration by back calculating from an IP1 standard curve prepared at the time of the assay.

T1 sequence (O14842 whole entry): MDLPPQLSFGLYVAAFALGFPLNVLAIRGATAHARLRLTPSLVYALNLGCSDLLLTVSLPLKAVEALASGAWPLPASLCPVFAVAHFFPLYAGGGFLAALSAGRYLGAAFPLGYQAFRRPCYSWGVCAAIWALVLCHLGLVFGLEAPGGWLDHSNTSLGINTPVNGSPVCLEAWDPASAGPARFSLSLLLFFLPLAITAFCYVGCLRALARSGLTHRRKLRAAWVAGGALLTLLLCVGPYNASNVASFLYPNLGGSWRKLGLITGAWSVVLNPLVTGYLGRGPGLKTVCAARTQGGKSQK

At human GPR40 [1], `COc1ccc(F)c(-c2ccc([C@@H]3Cc4cc([C@H](C5CC5)[C@H](C)C(=O)O)ccc4C(=O)O3)cc2)c1` [Example 23, (2S,3R)-3-cyclopropyl-3-((S)-3-(2′-fluoro-5′-methoxy-[1,1′-biphenyl]-4-yl)-1-oxoisochroman-6-yl)-2-methylpropanoic acid] registered a 50% effective concentration (EC50) of 424 nM.

In the case of `COc1cc(-c2ccc(C3CCc4ccc(C(C5CC5)C(C)C(=O)O)cc4C3)c(F)c2)ccn1` (single isomer, unassigned) [Example 33, 3-cyclopropyl-3-(7-(2-fluoro-4-(2-methoxypyridin-4-yl)phenyl)-5,6,7,8-tetrahydronaphthalen-2-yl)-2-methylpropanoic acid], a half-maximal effect at human GPR40 [2] (EC50) was put at 1.4 nM.

`COc1ccc(F)c(-c2ccc(C3COc4ccc(C(CC(=O)O)C5CC5)cc4C3)cc2)c1` (single isomer, unassigned) [Example 3] showed an EC50 on human GPR40 [1] of 330 nM.

As to `COc1cc(-c2ccc([C@H]3Cc4cc([C@H](C5CC5)[C@H](C)C(=O)O)ccc4CO3)c(F)c2)ccn1` [Example 38B, (2S,3R)-3-cyclopropyl-3-((R)-3-(2-fluoro-4-(2-methoxy-pyridin-4-yl)phenyl)isochroman-6-yl)-2-methylpropanoic acid], the EC50 on human GPR40 [2] came to 24.5 nM. In other words, the double-digit nanomolar range.

`COc1cc(-c2ccc(C3CCc4ccc(C(C5CC5)C(C)C(=O)O)cc4C3)c(F)c2)ccn1` (single isomer, unassigned) [Example 36] gave an EC50 at human GPR40 [2] of 4.8 nM.

`C[C@H](C(=O)O)[C@H](c1ccc2c(c1)CC(C1CCN(Cc3cc(C(F)(F)F)ccc3C(F)(F)F)CC1)CO2)C1CC1` (stereo partly drawn) [Example 25, Sodium (2S,3R)-3-(3-(1-(2,5-bis(trifluoromethyl)benzyl)piperidin-4-yl)chroman-6-yl)-3-cyclopropyl-2-methylpropanoate] returned an EC50 at human GPR40 [1] of 729 nM.

For the compound `COc1cc(-c2ccc(C3=Cc4cc([C@@H](C5CC5)[C@@H](C)C(=O)O)ccc4CC3)c(F)c2)ccn1` (single isomer, unassigned) [Example 30], the EC50 on human GPR40 [2] was found to be 3.8 nM.

At human GPR40 [1], `COc1ccc(F)c(-c2ccc(C3COc4ccc([C@@H](C5CC5)[C@@H](C)C(=O)O)cc4C3)cc2)c1` (single isomer, unassigned) [Example 8] returned an EC50 of 169 nM.

For the compound `COc1ccc(F)c(-c2ccc(C3Cc4cc([C@H](C5CC5)[C@H](C)C(=O)O)ccc4C(=O)O3)cc2)c1` (stereo in doubt) [Example 24, (2S,3R)-3-cyclopropyl-3-((S)-3-(2′-fluoro-5′-methoxy-[1,1′-biphenyl]-4-yl)-1-oxoisochroman-6-yl)-2-methylpropanoic acid], the midpoint of the response at human GPR40 [1], the EC50, lay at 166 nM.

`COc1ccc(F)c(-c2ccc(C3COc4ccc([C@@H](C5CC5)[C@@H](C)C(=O)O)cc4C3)cc2)c1` (single isomer, unassigned) [Example 9]: the EC50 at human GPR40 [1] is 60 nM.

Regarding `COc1ccc(F)c(-c2ccc(C3COc4ccc([C@H](C5CC5)[C@H](C)C(=O)O)cc4C3)cc2)c1` (single isomer, unassigned) [Example 6], a half-maximal effect at human GPR40 [1] (EC50) was put at 5.6 nM.

In the case of `COc1ccc(F)c(-c2ccc([C@H]3Cc4cc([C@H](C5CC5)[C@H](C)C(=O)O)ccc4CO3)cc2)c1` [Example 22, (2S,3R)-3-cyclopropyl-3-((R)-3-(2′-fluoro-5′-methoxy-1,1′-biphenyl-4-yl)isochroman-6-yl)-2-methylpropanoic acid], on human GPR40 [2], the EC50 came out at 0.5 nM.

In turn, `COc1cc(-c2ccc(C3=Cc4cc([C@H](C5CC5)[C@@H](C)C(=O)O)ccc4CC3)c(F)c2)ccn1` (single isomer, unassigned) [Example 32] registered an EC50 on human GPR40 [2] of 28 nM. Against the preceding compound, the EC50 is about 56-fold higher.

Turning to `COc1cc(-c2ccc(C3Cc4cc([C@H](C5CC5)[C@H](C)C(=O)O)ccc4CO3)cc2)c(F)cn1` (single isomer, unassigned) [Example 39A], a half-maximal effect on human GPR40 [2] (EC50) was put at 0.76 nM.

At human GPR40 [2], `COc1cc(-c2ccc([C@@H]3Cc4cc([C@H](C5CC5)[C@H](C)C(=O)O)ccc4CO3)c(F)c2)ccn1` [Example 38A, (2S,3R)-3-cyclopropyl-3-((S)-3-(2-fluoro-4-(2-methoxypyridin-4-yl)phenyl)isochroman-6-yl)-2-methylpropanoic acid] yielded an EC50 of 4.2 nM.

On human GPR40 [1], `COc1ccc(F)c(-c2ccc(C3CCc4ccc(C(C5CC5)C(C)C(=O)O)cc4C3)cc2)c1` (stereo not drawn) [Example 26, 3-cyclopropyl-3-(7-(2′-fluoro-5′-methoxy-[1,1′-biphenyl]-4-yl)-5,6,7,8-tetrahydronaphthalen-2-yl)-2-methylpropanoic acid] returned an EC50 of 24 nM.

`COc1cc(-c2ccc(C3COc4ccc([C@H](C5CC5)[C@H](C)C(=O)O)cc4C3)cc2)c(F)cn1` (single isomer, unassigned) [Example 10] gave an EC50 on human GPR40 [1] of 13 nM. Against the preceding compound, the EC50 is about 1.8-fold lower.

On human GPR40 [2], `C[C@H](C(=O)O)[C@H](c1ccc2c(c1)CC(C1CCN(c3ncccc3C(F)(F)F)CC1)OC2)C1CC1` (stereo partly drawn) [Example 40, (2S,3R)-3-cyclopropyl-2-methyl-3-(3-(1-(3-(trifluoromethyl)pyridin-2-yl)piperidin-4-yl)isochroman-6-yl)propanoic acid] registered an EC50 of 54 nM.

`COc1cc(-c2ccc(C3COc4ccc([C@H](C5CC5)[C@H](C)C(=O)O)cc4C3)c(F)c2)ccn1` (single isomer, unassigned) [Example 18] registered an EC50 on human GPR40 [2] of 8.1 nM.

Regarding `COc1ccc(F)c(-c2ccc(C3COc4ccc([C@H](C5CC5)[C@H](C)C(=O)O)cc4C3)cc2)c1` (single isomer, unassigned) [Example 7], the EC50 on human GPR40 [1] was 3 nM.

As for `COc1ccc(F)c(-c2ccc(C3COc4ccc(C(CC(=O)O)C5CC5)cc4C3)cc2)c1` (single isomer, unassigned) [Example 5], on human GPR40 [1], it took 106 nM to reach a half-maximal effect (EC50).

With `COc1cc(-c2ccc(C3COc4ccc([C@H](C5CC5)[C@H](C)C(=O)O)cc4C3)cc2)ccn1` (single isomer, unassigned) [Example 15], a half-maximal response on human GPR40 [1] (EC50) required 26 nM.

`C[C@H](C(=O)O)[C@H](c1ccc2c(c1)CC(c1ccc(-c3cccc(OC4CC4)c3)cc1)CO2)C1CC1` (stereo partly drawn) [Example 19, (2S,3R)-3-(3-(3′-cyclopropoxy-[1,1′-biphenyl]-4-yl)chroman-6-yl)-3-cyclopropyl-2-methylpropanoic acid]: on human GPR40 [1], a half-maximal effect (EC50) was put at 250 nM.

`COc1cc(-c2ccc(C3COc4ccc([C@H](C5CC5)[C@H](C)C(=O)O)cc4C3)cc2)ccn1` (stereo partly drawn) [Example 12] registered an EC50 on human GPR40 [1] of 12 nM. This EC50 is about 21-fold lower than that of the compound before.

As to `COc1ccc(F)c(-c2ccc(C3COc4ccc(C(CC(=O)O)C5CC5)cc4C3)cc2)c1` (single isomer, unassigned) [Example 4], a half-maximal effect on human GPR40 [1] (EC50) was put at 75 nM.

For `COc1ccc(F)c(-c2ccc(C3Cc4cc(C(CC(=O)O)C5CC5)ccc4CO3)cc2)c1` (mixture of isomers) [Example 20, 3-cyclopropyl-3-(3-(2′-fluoro-5′-methoxy-[1,1′-biphenyl]-4-yl)isochroman-6-yl)propanoic acid], the EC50 on human GPR40 [1] was found to be 5380 nM.

Turning to `COc1cc(-c2ccc(C3COc4ccc([C@H](C5CC5)[C@H](C)C(=O)O)cc4C3)c(F)c2)ccn1` (stereo partly drawn) [Example 14], at human GPR40 [1], the EC50 was found to be 32 nM.

The compound `COc1ccc(F)c(-c2ccc(C3Cc4cc([C@H](C5CC5)[C@H](C)C(=O)O)ccc4S(=O)(=O)C3)cc2)c1` (stereo partly drawn) [Example 28, (2S,3R)-3-Cyclopropyl-3-(3-(2′-fluoro-5′-methoxy-[1,1′-biphenyl]-4-yl)-1,1-dioxidothiochroman-6-yl)-2-methylpropanoic acid] registered an EC50 on human GPR40 [1] of 69 nM.

Take `COc1ccc(F)c(-c2ccc(C3CSc4ccc([C@H](C5CC5)[C@H](C)C(=O)O)cc4C3)cc2)c1` (stereo partly drawn) [Example 27, (2S,3R)-3-cyclopropyl-3-(3-(2′-fluoro-5′-methoxy-[1,1′-biphenyl]-4-yl)thiochroman-6-yl)-2-methylpropanoic acid]: a half-maximal effect at human GPR40 [1] (EC50) was put at 6.9 nM.

Compound `COc1cc(-c2ccc(C3COc4ccc([C@H](C5CC5)[C@H](C)C(=O)O)cc4C3)cc2)ccn1` (single isomer, unassigned) [Example 16] registered an EC50 at human GPR40 [1] of 12 nM.

As to `Cc1cccc(C)c1-c1ccc(C2COc3ccc([C@H](C4CC4)[C@H](C)C(=O)O)cc3C2)cc1` (stereo partly drawn) [Example 13], a half-maximal effect on human GPR40 [1] (EC50) was put at 592 nM.

In the case of `COc1ccc(F)c(-c2ccc(C3COc4ccc(C(CC(=O)O)C5CC5)cc4C3)cc2)c1` (stereo not drawn) [Example 1, 3-cyclopropyl-3-(3-(2′-fluoro-5′-methoxy-[1,1′-biphenyl]-4-yl)chroman-6-yl)propanoic acid], it took 155 nM to reach a half-maximal effect at human GPR40 [1] (EC50).

At human GPR40 [1], `COc1cc(-c2ccc(C3COc4ccc([C@H](C5CC5)[C@H](C)C(=O)O)cc4C3)cc2)c(F)cn1` (single isomer, unassigned) [Example 11] registered an EC50 of 6.3 nM.
